Reference: patent US9221746B2, “Homo- and hetero-polyamino-acid derivatives of fullerene C60, method for producing same, and pharmaceutical compositions based on said derivatives” (priority 2011, dated 2015)
Where two headings read alike, the source gives them in different places.

Key:
[1] = system: breast adenocarcinoma Ca-755; assay type: in vivo, mice; settings: for ILT, %: increase in lifetime compared to the control
Description: These studies were carried out at the Institute for Toxicology, St. Petersburg, 2006, according to “Guidelines for the Study of Antitumor Activity of Pharmacological Agents” (“Manual on Experimental (Preclinical) Study of New Pharmacological Agents,” Ministry of Public Health of the Russian Federation, Remedium, Moscow, 2000, pp. 319-325).
The L1210 leukemia, breast adenocarcinoma Ca-755, and Lewis carcinoma (3LL) tumor cell strain were purchased from the Petrov Research Institute for Oncology, the Ministry of Public Health of the Russian Federation (St. Petersburg).
C 57 BL/6J line male mice with transplanted Ca-755 cells. Mouse ages: 6 to 8 weeks; body weights: 19 to 25 g.
The antitumor effect was ascertained through the following parameters: • ascite accumulation as animal body weight gain; • the lifetime of animals; and • tumor growth. The larger dimension of the tumor (length) and the smaller dimension normal thereto (width) were measured. The tumor volume was calculated, and the inhibition of tumor growth was calculated by a formula. The ascertainment criterion was the day when each individual tumor reached a volume of 500 mm^3.

[2] = system: human lymphoblastoid cells; experiment: Cytotoxicity in human lymphoblastoid cells model; assay type: cell-based
[3] = system: type 1 human immunodeficiency virus; experiment: Antiviral activity on HIV-1 infected human cell model; assay type: cell-based; settings: for Cell survival rate, % / Number of cells × 10^3/mL / CPE/syncytia (+): HIV-1 infected cells; for CPE/syncytia (+): four-plus system
[4] = system: A/IIV-Moscow/01/2009 (H1N1)swl influenza virus; experiment: Reduction of influenza virus reproduction in MDCK cell culture (ELISA); assay type: cell-based; settings: for Percent reduction of influenza virus reproduction in MDCK cell culture relative to control, average values: average of the three experiments
Description: The agent was diluted with DMSO (5 mg substance+0.5 mL DMSO), followed by addition of 4.5 mL MEM cell cultural medium to obtain in this way a stock solution with a concentration of 1.0 […].
The antiviral activity was ascertained from the reduction of influenza virus reproduction in the MDCK cell culture, as recognized by ELISA.
For this purpose, MDCK cells were grown on 96-well plates to obtain a complete monolayer, washed from the growth medium, and added with substances in a twofold concentration in 100 mcL MEM medium. Infection with the virus in a working dose ranging from 100 to 1000 TCD50 was carried out in two protocols: 2 hours following the insertion of the substances and simultaneously. The plates were incubated in a thermostat filled with CO2 for 24 hours at 37° C. Following the incubation, the medium was removed and cells were fixed by 80% acetone in PBS for 15 minutes and then well dried, and ELISA was performed by consecutive adsorption of specific reagents, namely, monoclonal antibodies, conjugate, and substrate (orthophenylenediamine). The degree of reaction was monitored by measuring optical density at 492 nm on a Biokom spectrophotometer. Each virus dilution was studied in three replicas, for which an average optical density (OD) value was calculated. Percent inhibition was determined as the quotient of the difference between the experimental OD and the OD of the cell control, divided by the difference between the OD of the virus control and the OD of the cell control, multiplied by 100%. The data gained in this way were used to determine the minimal concentration of the agent causing the 50.0% inhibition of viral reproduction (MIC50).
The inhibition of A(H1N1) influenza virus replication was ascertained in three experiments with different multiplicities of infection.

[5] = system: Herpes simplex virus, type 1, Lg strain; experiment: Anti-herpetic activity in the Vero cell culture; assay type: cell-based; settings: for Optical density: MTT assay

Fullerene Poly(Aminocaproic Acid) of Formula C60(H3){NH(CH2)5COO—}3{NH3^+(CH2)5COOH}3 [Agent No. 1]
ALT in days, M ± m ([1]; 100 mg/kg): 71.9 ± 2.58 days
ILT, % ([1]; 100 mg/kg): 89.71%
ALT in days, M ± m ([1]; 100 mg/kg, listed as agent): 71.9 ± 2.58 days
average lifetime ([1]; 200 mg/kg): 73.4+0.92 days
percent increase in lifetime compared to the control ([1]; 200 mg/kg): 93.67%
ALT in days, M ± m ([1]; 250 mg/kg): 73.40 ± 0.92 days
ILT, % ([1]; 250 mg/kg): 93.67%
intoxication signatures ([1]; mouse, in vivo): No intoxication signatures were detected
Cell survival rate, % ([2]; 0.5 mcg/mL): 95%
Number of cells × 10^3/mL ([2]; 0.5 mcg/mL): 833 × 10^3/mL
Cell survival rate, % ([2]; 1.0 mcg/mL): 94%
Number of cells × 10^3/mL ([2]; 1.0 mcg/mL): 833 × 10^3/mL
Cell survival rate, % ([2]; 5.0 mcg/mL): 98%
Number of cells × 10^3/mL ([2]; 5.0 mcg/mL): 799 × 10^3/mL
Cell survival rate, % ([2]; 10.0 mcg/mL): 94%
Number of cells × 10^3/mL ([2]; 10.0 mcg/mL): 767 × 10^3/mL
Cell survival rate, % ([2]; 100 mcg/mL): 95%
cytotoxic effect on cells ([2]; concentrations of 0.5 to 10 mcg/mL): no cytotoxic effect
Cell survival rate, % ([3]; 0.5 mcg/mL): 18%
Number of cells × 10^3/mL ([3]; 0.5 mcg/mL): 33 × 10^3/mL
CPE/syncytia (+) ([3]; 0.5 mcg/mL): 4.0 (+)
Cell survival rate, % ([3]; 1.0 mcg/mL): 26%
Number of cells × 10^3/mL ([3]; 1.0 mcg/mL): 495 × 10^3/mL
CPE/syncytia (+) ([3]; 1.0 mcg/mL): 4.0 (+)
Cell survival rate, % ([3]; 5.0 mcg/mL): 98%
Number of cells × 10^3/mL ([3]; 5.0 mcg/mL): 633 × 10^3/mL
CPE/syncytia (+) ([3]; 5.0 mcg/mL): 0 (+)
Cell survival rate, % ([3]; 10 mcg/mL): 98%
Number of cells × 10^3/mL ([3]; 10 mcg/mL): 600 × 10^3/mL
CPE/syncytia (+) ([3]; 10 mcg/mL): 0 (+)
EC50 (50% effective concentration) ([3]; type 1 human immunodeficiency virus): 0.9 µg/mL
Percent (%) reduction of influenza virus reproduction in MDCK cell culture relative to control ([4]; 6.25 mcg/mL, 2 h prior to infection, 1st value of cell (experiments with different multiplicities of infection)): 27.0%
Percent (%) reduction of influenza virus reproduction in MDCK cell culture relative to control ([4]; 6.25 mcg/mL, 2 h prior to infection, 2nd value of cell): 28.0%
Percent (%) reduction of influenza virus reproduction in MDCK cell culture relative to control ([4]; 6.25 mcg/mL, 2 h prior to infection, 3rd value of cell): 0%
Percent reduction of influenza virus reproduction in MDCK cell culture relative to control, average values ([4]; 6.25 mcg/mL, 2 h prior to infection): 18.0%
Percent (%) reduction of influenza virus reproduction in MDCK cell culture relative to control ([4]; 6.25 mcg/mL, simultaneously with infection, 1st value of cell): 18.0%
Percent (%) reduction of influenza virus reproduction in MDCK cell culture relative to control ([4]; 6.25 mcg/mL, simultaneously with infection, 2nd value of cell): 0%
Percent (%) reduction of influenza virus reproduction in MDCK cell culture relative to control ([4]; 6.25 mcg/mL, simultaneously with infection, 3rd value of cell): 0%
Percent reduction of influenza virus reproduction in MDCK cell culture relative to control, average values ([4]; 6.25 mcg/mL, simultaneously with infection): 6.0%
Percent (%) reduction of influenza virus reproduction in MDCK cell culture relative to control ([4]; 12.5 mcg/mL, 2 h prior to infection, 1st value of cell): 47.0%
Percent (%) reduction of influenza virus reproduction in MDCK cell culture relative to control ([4]; 12.5 mcg/mL, 2 h prior to infection, 2nd value of cell): 74.0%
Percent (%) reduction of influenza virus reproduction in MDCK cell culture relative to control ([4]; 12.5 mcg/mL, 2 h prior to infection, 3rd value of cell): 9.5%
Percent reduction of influenza virus reproduction in MDCK cell culture relative to control, average values ([4]; 12.5 mcg/mL, 2 h prior to infection): 44.0%
Percent (%) reduction of influenza virus reproduction in MDCK cell culture relative to control ([4]; 12.5 mcg/mL, simultaneously with infection, 1st value of cell): 39.0%
Percent (%) reduction of influenza virus reproduction in MDCK cell culture relative to control ([4]; 12.5 mcg/mL, simultaneously with infection, 2nd value of cell): 13.0%
Percent (%) reduction of influenza virus reproduction in MDCK cell culture relative to control ([4]; 12.5 mcg/mL, simultaneously with infection, 3rd value of cell): 0%
Percent reduction of influenza virus reproduction in MDCK cell culture relative to control, average values ([4]; 12.5 mcg/mL, simultaneously with infection): 26%
Percent (%) reduction of influenza virus reproduction in MDCK cell culture relative to control ([4]; 25.0 mcg/mL, 2 h prior to infection, 1st value of cell): 41.0%
Percent (%) reduction of influenza virus reproduction in MDCK cell culture relative to control ([4]; 25.0 mcg/mL, 2 h prior to infection, 2nd value of cell): 79.0%
Percent (%) reduction of influenza virus reproduction in MDCK cell culture relative to control ([4]; 25.0 mcg/mL, 2 h prior to infection, 3rd value of cell): 12%
Percent reduction of influenza virus reproduction in MDCK cell culture relative to control, average values ([4]; 25.0 mcg/mL, 2 h prior to infection): 44.0%
Percent (%) reduction of influenza virus reproduction in MDCK cell culture relative to control ([4]; 25.0 mcg/mL, simultaneously with infection, 1st value of cell): 40.0%
Percent (%) reduction of influenza virus reproduction in MDCK cell culture relative to control ([4]; 25.0 mcg/mL, simultaneously with infection, 2nd value of cell): 0%
Percent reduction of influenza virus reproduction in MDCK cell culture relative to control, average values ([4]; 25.0 mcg/mL, simultaneously with infection): 20.0%
Percent (%) reduction of influenza virus reproduction in MDCK cell culture relative to control ([4]; 50.0 mcg/mL, 2 h prior to infection, 1st value of cell): 28.0%
Percent (%) reduction of influenza virus reproduction in MDCK cell culture relative to control ([4]; 50.0 mcg/mL, 2 h prior to infection, 2nd value of cell): 72.0%
Percent (%) reduction of influenza virus reproduction in MDCK cell culture relative to control ([4]; 50.0 mcg/mL, 2 h prior to infection, 3rd value of cell): 31.0%
Percent reduction of influenza virus reproduction in MDCK cell culture relative to control, average values ([4]; 50.0 mcg/mL, 2 h prior to infection): 44.0%
Percent (%) reduction of influenza virus reproduction in MDCK cell culture relative to control ([4]; 50.0 mcg/mL, simultaneously with infection, 1st value of cell): 33.0%
Percent (%) reduction of influenza virus reproduction in MDCK cell culture relative to control ([4]; 50.0 mcg/mL, simultaneously with infection, 2nd value of cell): 10.0%
Percent reduction of influenza virus reproduction in MDCK cell culture relative to control, average values ([4]; 50.0 mcg/mL, simultaneously with infection): 22.0%
Percent (%) reduction of influenza virus reproduction in MDCK cell culture relative to control ([4]; 100.0 mcg/mL, 2 h prior to infection, 1st value of cell): 4.0%
Percent (%) reduction of influenza virus reproduction in MDCK cell culture relative to control ([4]; 100.0 mcg/mL, 2 h prior to infection, 2nd value of cell): 0%
Percent (%) reduction of influenza virus reproduction in MDCK cell culture relative to control ([4]; 100.0 mcg/mL, 2 h prior to infection, 3rd value of cell): 20.0%
Percent reduction of influenza virus reproduction in MDCK cell culture relative to control, average values ([4]; 100.0 mcg/mL, 2 h prior to infection): 8%
Percent (%) reduction of influenza virus reproduction in MDCK cell culture relative to control ([4]; 100.0 mcg/mL, simultaneously with infection, 1st value of cell): 29.0%
Percent (%) reduction of influenza virus reproduction in MDCK cell culture relative to control ([4]; 100.0 mcg/mL, simultaneously with infection, 2nd value of cell): 28.0%
Percent reduction of influenza virus reproduction in MDCK cell culture relative to control, average values ([4]; 100.0 mcg/mL, simultaneously with infection): 29.0%
reproduction inhibitory activity in the MDCK cell culture ([4]; different dilutions of the agent): high reproduction inhibitory activity
protection of cells from the cytodestructive effect of the virus ([5]; 100 TCD50, agent 60 minutes prior to infecting, all concentrations from 5.0 mcg/mL and higher): completely protects
protection of cell culture from the cytodestructive effect of the virus ([5]; 1000 TCD50/0.2 mL, infected 60 minutes post inserting the agent): complete protection
Optical density ([5]; 100 TCD50, 5.0 mcg/mL): 1.110 ± 0.08
Optical density ([5]; 100 TCD50, 10.0 mcg/mL): 1.015 ± 0.07
Optical density ([5]; 100 TCD50, 50.0 mcg/mL): 1.153 ± 0.06
Optical density ([5]; 100 TCD50, 100.0 mcg/mL): 1.79 ± 0.05
Optical density ([5]; 1000 TCD50, 5.0 mcg/mL): 1.027 ± 0.04
Optical density ([5]; 1000 TCD50, 10.0 mcg/mL): 1.021 ± 0.04
Optical density ([5]; 1000 TCD50, 50.0 mcg/mL): 1.033 ± 0.03
Optical density ([5]; 1000 TCD50, 100.0 mcg/mL): 1.083 ± 0.01
